This note sets out measurements from patent US5521160A, “Sulfuric acid esters of sugar alcohols” (Hoffmann-La Roche Inc., priority 1994, dated 1996).

The test system of one experiment is rat smooth muscle cells. Put plainly: Antiproliferative activity (growth inhibition of rat smooth muscle cells, relative to heparin). The format is cell-based. To be noted: 100 μg/ml, 48 hours, relative to heparin 100 μg/ml in same experiment.
In a further experiment the target is T1, thrombin (Homo sapiens, UniProt P00734).
T1 construct: purchased Roche, Basle (Thrombin Reagent)
Nature of the experiment: biochemical. Format: biochemical. To be noted: read-out: Anticoagulative Activity IC50 Thrombin.

Another experiment addresses T2, Factor Xa (Bos taurus, UniProt P00743).
T2 sequence (P00743 41-180 limits assumed): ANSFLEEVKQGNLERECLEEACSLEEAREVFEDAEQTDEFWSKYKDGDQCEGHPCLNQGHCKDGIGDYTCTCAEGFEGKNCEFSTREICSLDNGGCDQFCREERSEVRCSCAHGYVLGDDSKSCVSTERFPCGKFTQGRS
Nature of the experiment: Inhibition of Factor Xa in the chromogenic substrate assay (blood coagulation inhibition). The format is biochemical. To be noted: chromogenic substrate S-2222, antithrombin III, plasma; read-out: Anticoagulative Activity IC50 Factor Xa.

Where [1] appears, read: chromogenic substrate S-2238, antithrombin III, plasma, pH 8.4, 37° C.

Structures can show the parent of a compound that is named as a salt. Where two headings read alike, the source gives them in different places.

Protocol for Factor Xa: (§1) The blood coagulation-inhibiting activity was determined as follows:
Inhibition of Thrombin or Factor Xa in the Chromogenic Substrate Assay (Teien. et al., Thrombosis Research 10, 399-410 (1977)): The determination was effected in a Cobas-Bio centrifugal automatic spectrophotometer. The buffer solution used consisted of 50 mM Tris buffer, 180 mM NaCl, 7.5 mM EDTA Na2, 1% PEG 6000 and 0.02% Tween 80, pH 8.4. The test solution consisted of 50 μl of buffer, 30 μl of antithrombin III (1 U/ml, Kabi Diagnostica) and 20 μl of plasma which contained various concentrations of test compounds.
The inhibition of Factor Xa was measured in the same manner using a solution of Factor Xa (2.8 nkat/ml) and 2 mM S-2222 (Bz-CO-Ile-Glu-Arg-NH.pNA, Kabi Diagnostica) in water in place of thrombin or S-2238.
Protocol for rat smooth muscle cells: The antiproliferative activity of a substance is expressed as the ri value which is a comparative value to the corresponding activity of heparin and which was determined in cell cultures as follows: rat smooth muscle cells were applied to cell culture plates in a density of 8×10^3 cells/well (medium: DMEM with 10% FCS. Cultivation at 37° C. and 5% CO2). After 4 hours the number of adhered cells was determined and the compounds to be tested (100 μg/ml, dissolved in H2 O) were added. The controls were a) cells to which test compound was not added and b) heparin (100 μg/ml). Subsequently, the cells were incubated for 48 hours and thereafter the cell count was determined once more.
The inhibition i of the cell growth, i.e. the percent reduction in the growth rate of the cells compared to the control, was calculated from these values: [formula] the growth rate μ being calculated as [formula] in which Z is the number of cells.
Finally, ri --the relative inhibitory activity--which expresses the activity of a substance (at 100 μg/ml) in comparison to the activity of heparin in the same concentration in the same experiment, was calculated: [formula]
Protocol for thrombin: as §1
Inhibition of Thrombin or Factor Xa in the Chromogenic Substrate Assay (Teien. et al., Thrombosis Research 10, 399-410 (1977)): The determination was effected in a Cobas-Bio centrifugal automatic spectrophotometer. The buffer solution used consisted of 50 mM Tris buffer, 180 mM NaCl, 7.5 mM EDTA Na2, 1% PEG 6000 and 0.02% Tween 80, pH 8.4. The test solution consisted of 50 μl of buffer, 30 μl of antithrombin III (1 U/ml, Kabi Diagnostica) and 20 μl of plasma which contained various concentrations of test compounds. 30 μl of sample solution and 20 μl of water with 180 μl of thrombin (1 U/ml, Thrombin Reagent Roche Basle) were added to the test cuvette in the automatic analyzer. After incubation at 37° C. for 240 seconds, 60 μl of S-2238 (H-D-Phe-Pip-Arg-NH.pNA, Kabi Diagnostica, Mondal, Sweden, 0.75 mM in water) and 20 μl of water were added. The liberation of pNA (p-nitroaniline) was followed during 60 seconds at 405 nm in 10 second intervals in comparison to water as the blank.

As a reminder, the IC50 is the point on the concentration scale where inhibition reaches its midpoint. Regarding `O=C(NC[C@H](OS(=O)(=O)O)[C@@H](OS(=O)(=O)O)[C@H](OS(=O)(=O)O)[C@@H](COS(=O)(=O)O)OS(=O)(=O)O)c1ccc2cc(C(=O)NC[C@H](OS(=O)(=O)O)[C@@H](OS(=O)(=O)O)[C@H](OS(=O)(=O)O)[C@@H](COS(=O)(=O)O)OS(=O)(=O)O)ccc2c1` [Example 1, naphthalene-2,6-dicarboxylic acid bis-(2,3,4,5,6-penta-O-sulfo-D-glucit-1-ylamide) decasodium salt], the “Antiproliferative Activity ri (relative inhibitory activity compared with heparin)” value in the experiment on rat smooth muscle cells came to 0.6. The IC50 on thrombin (pH 8.4) and at Factor Xa was more than 745 µM in each case.
Turning to `O=C(NC[C@H](OS(=O)(=O)O)[C@@H](OS(=O)(=O)O)[C@H](OS(=O)(=O)O)[C@@H](COS(=O)(=O)O)OS(=O)(=O)O)c1ccc(/C=C\c2ccc(C(=O)NC[C@H](OS(=O)(=O)O)[C@@H](OS(=O)(=O)O)[C@H](OS(=O)(=O)O)[C@@H](COS(=O)(=O)O)OS(=O)(=O)O)cc2)cc1` [Example 3, (Z)-stilbene-4,4'-dicarboxylic acid bis-(2,3,4,5,6-penta-O-sulfo-D-glucit-1-ylamide) decasodium salt], the “Antiproliferative Activity ri (relative inhibitory activity compared with heparin)” value with rat smooth muscle cells came to 1.5. Besides, the IC50 at thrombin (setting [1]) and on Factor Xa was more than 717 µM throughout.
On to `O=C(NC[C@H](OS(=O)(=O)O)[C@@H](OS(=O)(=O)O)[C@H](OS(=O)(=O)O)[C@@H](COS(=O)(=O)O)OS(=O)(=O)O)c1ccc(S(=O)(=O)c2ccc(C(=O)NC[C@H](OS(=O)(=O)O)[C@@H](OS(=O)(=O)O)[C@H](OS(=O)(=O)O)[C@@H](COS(=O)(=O)O)OS(=O)(=O)O)cc2)cc1` [Example 4, 4,4'-sulfonyl-dibenzoic acid bis-(2,3,4,5,6-penta-O-sulfo-D-glucit-1-ylamide) decasodium salt], for which the “Antiproliferative Activity ri (relative inhibitory activity compared with heparin)” value in the experiment with rat smooth muscle cells came to 0.3. Further, the IC50 on thrombin (setting [1]) and on Factor Xa was more than 698 µM throughout.
On to `CC(/C=C/C=C(\C)C(=O)NC[C@H](OS(=O)(=O)O)[C@@H](OS(=O)(=O)O)[C@H](OS(=O)(=O)O)[C@@H](COS(=O)(=O)O)OS(=O)(=O)O)=C\C=C\C=C(C)\C=C\C=C(/C)C(=O)NC[C@H](OS(=O)(=O)O)[C@@H](OS(=O)(=O)O)[C@H](OS(=O)(=O)O)[C@@H](COS(=O)(=O)O)OS(=O)(=O)O` [Example 6, (2E,4E,6E,8E,10E,12E,14E)-2,6,11,15-tetramethyl-hexadeca-2,4,6,8,10,12,14-heptaenedicarboxylic acid bis-(2,3,4,5,6-penta-O-sulfo-D-glucit-1-ylamide) decasodium salt], for which, in the experiment on rat smooth muscle cells, the “Antiproliferative Activity ri (relative inhibitory activity compared with heparin)” value is recorded as 1.5. Also, the IC50 at thrombin (setting [1]) and at Factor Xa was more than 687 µM in each case.
For the compound `O=C(NC[C@H](OS(=O)(=O)O)[C@@H](OS(=O)(=O)O)[C@H](OS(=O)(=O)O)[C@@H](COS(=O)(=O)O)OS(=O)(=O)O)c1ccc(CCc2ccc(C(=O)NC[C@H](OS(=O)(=O)O)[C@@H](OS(=O)(=O)O)[C@H](OS(=O)(=O)O)[C@@H](COS(=O)(=O)O)OS(=O)(=O)O)cc2)cc1` [Example 10, 4,4'-ethylene-dibenzoic acid bis-(2,3,4,5,6-penta-O-sulfo-D-glucit-1-ylamide) decasodium salt], in the experiment with rat smooth muscle cells, the “Antiproliferative Activity ri (relative inhibitory activity compared with heparin)” value was determined as 1.5. In addition, the IC50 at thrombin (setting [1]) and at Factor Xa was more than 716 µM throughout.
Take `O=S(=O)(O)OC[C@@H](OS(=O)(=O)O)[C@@H](OS(=O)(=O)O)[C@H](OS(=O)(=O)O)[C@H](CNS(=O)(=O)c1cccc2c(S(=O)(=O)NC[C@H](OS(=O)(=O)O)[C@@H](OS(=O)(=O)O)[C@H](OS(=O)(=O)O)[C@@H](COS(=O)(=O)O)OS(=O)(=O)O)cccc12)OS(=O)(=O)O` [Example 11, naphthalene-1,5-disulfonic acid bis-(2,3,4,5,6-penta-O-sulfo-D-glucit-1-ylamide) decasodium salt]: the “Antiproliferative Activity ri (relative inhibitory activity compared with heparin)” value in the experiment with rat smooth muscle cells is listed as 1.0. The half-inhibitory concentration (IC50) at thrombin (setting [1]) and on Factor Xa was more than 707 µM each time.
As for `O=C(Nc1ccc(OC[C@@H](OS(=O)(=O)O)[C@H](OS(=O)(=O)O)[C@@H](COS(=O)(=O)O)OS(=O)(=O)O)cc1)c1cccc(C(=O)Nc2ccc(OC[C@@H](OS(=O)(=O)O)[C@H](OS(=O)(=O)O)[C@@H](COS(=O)(=O)O)OS(=O)(=O)O)cc2)c1` [Example 12, N,N'-bis-[4-(2,3,4,5-tetra-O-sulfo-D-arabinit-1-yloxy)-phenyl]-isophthalamide octasodium salt], the “Antiproliferative Activity ri (relative inhibitory activity compared with heparin)” value in the experiment with rat smooth muscle cells was 0.9. Further, the half-maximal inhibitory concentration (IC50) at thrombin (setting [1]) and at Factor Xa was more than 795 µM in each case.
As for `O=C(NC[C@H](OS(=O)(=O)O)[C@@H](OS(=O)(=O)O)[C@H](OS(=O)(=O)O)[C@@H](COS(=O)(=O)O)OS(=O)(=O)O)c1cccc(C(=O)NC[C@H](OS(=O)(=O)O)[C@@H](OS(=O)(=O)O)[C@H](OS(=O)(=O)O)[C@@H](COS(=O)(=O)O)OS(=O)(=O)O)c1` [Example 14, N,N'-bis-(2,3,4,5,6-penta-O-sulfo-D-glucit-1-yl)-isophthalamide decasodium salt], in the experiment on rat smooth muscle cells, the “Antiproliferative Activity ri (relative inhibitory activity compared with heparin)” value worked out at 0.6. Besides, the concentration for half-maximal inhibition (IC50) on thrombin (setting [1]) and on Factor Xa was more than 773 µM throughout.
Consider `O=C(NC[C@H](OS(=O)(=O)O)[C@@H](OS(=O)(=O)O)[C@H](OS(=O)(=O)O)[C@@H](COS(=O)(=O)O)OS(=O)(=O)O)c1ccc(Cc2ccc(C(=O)NC[C@H](OS(=O)(=O)O)[C@@H](OS(=O)(=O)O)[C@H](OS(=O)(=O)O)[C@@H](COS(=O)(=O)O)OS(=O)(=O)O)cc2)cc1` [Example 16, 4,4'-methylene-dibenzoic acid bis-(2,3,4,5,6-penta-O-sulfo-D-glucit-1-ylamide) decasodium salt], for which the “Antiproliferative Activity ri (relative inhibitory activity compared with heparin)” value in the experiment with rat smooth muscle cells was 0.7. For the same compound, the IC50 at thrombin (setting [1]) and at Factor Xa was more than 723 µM in each case.
For `Cc1c(NC(=O)NC[C@H](OS(=O)(=O)O)[C@@H](OS(=O)(=O)O)[C@H](OS(=O)(=O)O)[C@@H](COS(=O)(=O)O)OS(=O)(=O)O)cccc1NC(=O)NC[C@H](OS(=O)(=O)O)[C@@H](OS(=O)(=O)O)[C@H](OS(=O)(=O)O)[C@@H](COS(=O)(=O)O)OS(=O)(=O)O` [Example 26, 3,3'-bis-(2,3,4,5,6-penta-O-sulfo-D-glucit-1-yl)-1,1'-(toluene-2,6-diyl)-diurea decasodium salt], the “Antiproliferative Activity ri (relative inhibitory activity compared with heparin)” value in the experiment on rat smooth muscle cells is listed as 1.5. For the same compound, the IC50 at thrombin (setting [1]) and at Factor Xa was more than 748 µM each time.
`O=C(NC[C@H](OS(=O)(=O)O)[C@@H](OS(=O)(=O)O)[C@H](OS(=O)(=O)O)[C@@H](COS(=O)(=O)O)OS(=O)(=O)O)Nc1ccc(NC(=O)c2ccc(C(=O)Nc3ccc(NC(=O)NC[C@H](OS(=O)(=O)O)[C@@H](OS(=O)(=O)O)[C@H](OS(=O)(=O)O)[C@@H](COS(=O)(=O)O)OS(=O)(=O)O)cc3)cc2)cc1` [Example 33, N,N'-bis-[4-[3-(2,3,4,5,6-penta-O-sulfo-D-glucit-1-yl)-ureido]-phenyl]-terephthalamide decasodium salt]: in the experiment on rat smooth muscle cells, the “Antiproliferative Activity ri (relative inhibitory activity compared with heparin)” value is reported as 0.8. In addition, the IC50 on thrombin (pH 8.4) and at Factor Xa was more than 640 µM each time.
As for `O=C(/C=C/C(=O)Nc1ccc(NC(=O)NC[C@H](OS(=O)(=O)O)[C@@H](OS(=O)(=O)O)[C@H](OS(=O)(=O)O)[C@@H](COS(=O)(=O)O)OS(=O)(=O)O)cc1)Nc1ccc(NC(=O)NC[C@H](OS(=O)(=O)O)[C@@H](OS(=O)(=O)O)[C@H](OS(=O)(=O)O)[C@@H](COS(=O)(=O)O)OS(=O)(=O)O)cc1` [Example 34, N,N'-bis-[4-[3-(2,3,4,5,6-penta-O-sulfo-D-glucit-1-yl)-ureido]-phenyl]-fumaramide decasodium salt], the “Antiproliferative Activity ri (relative inhibitory activity compared with heparin)” value with rat smooth muscle cells came out at 0.4. Besides, the IC50 at thrombin (pH 8.4) and on Factor Xa was more than 662 µM throughout.
As for `CN(C[C@H](OS(=O)(=O)O)[C@@H](OS(=O)(=O)O)[C@H](OS(=O)(=O)O)[C@@H](COS(=O)(=O)O)OS(=O)(=O)O)C(=O)c1ccc2c(c1)C(=O)c1cc(C(=O)N(C)C[C@H](OS(=O)(=O)O)[C@@H](OS(=O)(=O)O)[C@H](OS(=O)(=O)O)[C@@H](COS(=O)(=O)O)OS(=O)(=O)O)ccc1-2` [Example 37, 9-oxo-9H-fluorene-2,7-dicarboxylic acid bis-[methyl-(2,3,4,5,6-penta-O-sulfo-D-glucit-1yl)-amide] decasodium salt], the “Antiproliferative Activity ri (relative inhibitory activity compared with heparin)” value with rat smooth muscle cells amounted to 0.7. The IC50 at thrombin (setting [1]) and on Factor Xa was more than 703 µM each time.
In the case of `O=C(/C=C\C(=O)Nc1cc(COc2ccc(-c3ccccc3)cc2)cc(NC(=O)/C=C\C(=O)NC[C@H](OS(=O)(=O)O)[C@@H](OS(=O)(=O)O)[C@H](OS(=O)(=O)O)[C@@H](COS(=O)(=O)O)OS(=O)(=O)O)c1)NC[C@H](OS(=O)(=O)O)[C@@H](OS(=O)(=O)O)[C@H](OS(=O)(=O)O)[C@@H](COS(=O)(=O)O)OS(=O)(=O)O` [Example 58, (Z)-butenedioic acid (Z)-[3-biphenyl-4-yloxymethyl-5-[3-(2,3,4,5,6-penta-O-sulfo-D-glucit-1-ylcarbamoyl)-acryloylamino]-phenylamide]-(2,3,4,5,6-penta-O-sulfo-D-glucit-1-yl)-amide decasodium salt], the “Antiproliferative Activity ri (relative inhibitory activity compared with heparin)” value with rat smooth muscle cells amounted to 2.2. For the same compound, the IC50 at thrombin (setting [1]) and on Factor Xa was more than 620 µM each time.
